Measurements published in US20200352878A1, “USE OF CANNABINOIDS IN THE TREATMENT OF EPILEPSY” (priority 2018, published 2020).

What was measured:
[1] = Open-label, fixed sequence healthy volunteer drug-drug interaction trial of CBD and stiripentol (steady-state pharmacokinetics, safety); format: in vivo, human; settings: healthy volunteers
Procedure: As part of an open-label, fixed sequence, healthy volunteer trial the primary objective was to investigate the impact of CBD (750 mg twice daily) on the steady-state pharmacokinetics of stiripentol (STP) (750 mg) and the reciprocal effect on CBD, 7-hydroxy-cannabidiol (7-OH-CBD) and 7-carboxy-cannabidiol (7-COOH-CBD).
Analyte plasma concentrations were determined using validated bioanalytical methods. A secondary objective was to evaluate the safety and tolerability of CBD when co-administered with STP.

[2] = system: convulsive seizures in patients with treatment-resistant Dravet syndrome; test: Clinical trial of adjunctive CBD in treatment-resistant Dravet syndrome; analysis of the interaction with concomitant AEDs; format: in vivo, human; settings: for Percentage of patients with greater than 50% reduction in seizures: Dravet syndrome patients aged 2-18 years, convulsive seizures over treatment period vs 4-week baseline, CBD 20 mg/kg/day or placebo added to current AEDs
Procedure: Following completion of a 4-week baseline period, patients were randomized to receive either 20 mg/kg/day CBD (n=61) or placebo (n=59). CBD or placebo were added to their current anti-epileptic treatment which remained stable over the treatment period of the study.
Seizure counts were reported daily via an Interactive Voice Response System. Convulsive seizures were defined as all countable atonic, tonic, clonic, and tonic-clonic seizures. The primary efficacy end point was percent change from baseline in convulsive seizures.
During a 4-week baseline period, patients were required to have at least 4 convulsive seizures (tonic-clonic, clonic, tonic or atonic) while on stable AED therapy. Patients had previously failed a median of 4 prior AEDs and 93% were taking 2 or more concomitant AEDs during the trial. The most commonly used concomitant AEDs (>25% of patients) were clobazam, valproate, stiripentol, levetiracetam, and topiramate.
Following the trial statistical analysis was performed on the various patient groups to determine whether there was an interaction between any of the concomitant AEDs that the patients were taking.
Table 6 below describes the percentage of patients that recorded a 50% reduction in convulsive seizures over the treatment period.

[3] = CBD 750 mg twice daily, STP 750 mg, plasma

SMILES: C=C(C)[C@@H]1CCC(C(=O)O)=C[C@H]1c1c(O)cc(CCCCC)cc1O [7-COOH-CBD, 7-carboxy-cannabidiol]
- reduction of exposure by co-administered STP [1, 3]: 13%

SMILES: C=C(C)[C@@H]1CCC(CO)=C[C@H]1c1c(O)cc(CCCCC)cc1O [7-OH-CBD, 7-hydroxy-cannabidiol]
- reduction of exposure by co-administered STP [1, 3]: 29%

SMILES: C=C(C)[C@@H]1CCC(C)=C[C@H]1c1c(O)cc(CCCCC)cc1O [CBD, cannabidiol]
- median percent change from baseline in reduction of convulsive seizures, compared with placebo ([2]; CBD 20 mg/kg/day group (n=61) vs placebo (n=59), p=0.0123): statistically superior to placebo
- effect of co-administration of STP on CBD exposure [1, 3]: no effect
- most common adverse event (AE) ([1]; CBD co-administered with STP): diarrhoea

SMILES: CC(C)(C)C(O)/C=C/c1ccc2c(c1)OCO2 (stereo not shown) [Stiripentol, stiripentol]
- Percentage of patients with greater than 50% reduction in seizures [2]: 14%
- Percentage of patients with greater than 50% reduction in seizures ([2]; listed as stiripentol): 14%
